Like-named read-outs stand apart in the source and are kept apart here.
Experiment: Evaluation on solubility with respect to solvent
Assay type: physicochemical
Details: organic solvent or mixture, thermodynamic from solid, stirred for one hour, visually checked
Procedure: Here, Compound (C) is a specific non-charge transporting compound which is not the specific position isomer mixture.
First, the Exemplary compounds and Compound (C) are respectively dissolved in tetrahydrofuran, and solubility of the solution is evaluated as follows.
1 g of Compound (C) is added to 10 ml of tetrahydrofuran at 20° C., the mixture is stirred for one hour, and solubility thereof is visually checked. A case where Compound (C) is dissolved is evaluated as A, a case where an insoluble part is slightly observed is evaluated as B, and a case where the solution yields white turbidity is evaluated as C.
In addition, solubility thereof when the solvent is changed from tetrahydrofuran to toluene, xylene, dichloroethane, chloroform, and butyl acetate is evaluated.

solubility at 1 h (1 g added to 10 ml of butyl acetate at 20° C., read-out: Evaluation on solubility Butyl acetate): < 100 mg/mL
solubility at 1 h (1 g added to 10 ml of chloroform at 20° C., read-out: Evaluation on solubility Chloroform): > 100 mg/mL
solubility at 1 h (1 g added to 10 ml of dichloroethane at 20° C., read-out: Evaluation on solubility Dichloroethane): > 100 mg/mL
solubility at 1 h (1 g added to 10 ml of tetrahydrofuran at 20° C., read-out: Evaluation on solubility Tetrahydrofuran): > 100 mg/mL
solubility at 1 h (1 g added to 10 ml of toluene at 20° C., read-out: Evaluation on solubility Toluene): < 100 mg/mL
solubility at 1 h (1 g added to 10 ml of xylene at 20° C., read-out: Evaluation on solubility Xylene): < 100 mg/mL
SMILES: C=Cc1ccc(COc2ccc(C(C)(c3ccc(OCc4ccc(C=C)cc4)cc3)c3ccc(OCc4ccc(C=C)cc4)cc3)cc2)cc1 [Compound (C)]

From US8900783B2, “Electrophotographic photoreceptor, process cartridge, and image forming apparatus” (Fuji Xerox Co., Ltd., priority 2013, dated 2014)
